From patent publication US12227500B2, “Substituted pyrrolo[2,3-b]pyridines for suppressing toxic endoplasmic reticulum stress” (THE TRUSTEES OF COLUMBIA UNIVERSITY IN THE CITY OF NEW YORK, priority 2018, dated 2025) come the findings set out here.

Assay in all cases: Radiolabeled ATP kinase assay, panel of 60 kinases (Table S5)
What all share (format): biochemical

The target in test [1] is T1, panel of 60 human kinases (Homo sapiens, UniProt O75460).
T1 construct: purchased Reaction Biology Corp
As to conditions: ERN1/IRE1; 0.1 μM; 10 μM ATP; read-out: % Enzyme Activity (relative to DSMO controls). The method in brief:
(§1)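 Compounds at two concentrations, 0.1 μM and 0.5 μM, were screened for inhibition of 60 kinases in cell-free assays read out by radiolabeled ATP.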

Test [2] has as its target T2, panel of 60 human kinases (Homo sapiens, UniProt Q08345).
T2 construct: purchased Reaction Biology Corp
To be noted: DDR1; 0.1 μM; 10 μM ATP; read-out: % Enzyme Activity (relative to DSMO controls). The gist of the method:
as §1

Test [3] has as its target T3, panel of 60 human kinases (Homo sapiens, UniProt P53778).
T3 construct: purchased Reaction Biology Corp
T3 sequence (P53778 1-367): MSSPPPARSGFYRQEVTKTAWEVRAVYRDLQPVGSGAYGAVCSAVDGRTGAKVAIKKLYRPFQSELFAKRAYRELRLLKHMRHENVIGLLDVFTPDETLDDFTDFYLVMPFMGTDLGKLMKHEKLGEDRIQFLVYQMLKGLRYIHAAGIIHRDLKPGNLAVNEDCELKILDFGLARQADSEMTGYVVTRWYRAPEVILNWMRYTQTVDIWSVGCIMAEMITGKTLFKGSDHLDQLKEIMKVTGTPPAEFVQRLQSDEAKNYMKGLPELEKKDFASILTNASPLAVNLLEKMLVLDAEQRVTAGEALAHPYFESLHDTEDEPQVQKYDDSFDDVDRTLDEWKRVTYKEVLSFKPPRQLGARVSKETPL
As to conditions: P38g; 0.1 μM; 10 μM ATP; read-out: % Enzyme Activity (relative to DSMO controls). The method in brief: as §1

Test [4] deals with T4, panel of 60 human kinases (Homo sapiens, UniProt Q92630).
T4 construct: purchased Reaction Biology Corp
T4 sequence (Q92630 1-601): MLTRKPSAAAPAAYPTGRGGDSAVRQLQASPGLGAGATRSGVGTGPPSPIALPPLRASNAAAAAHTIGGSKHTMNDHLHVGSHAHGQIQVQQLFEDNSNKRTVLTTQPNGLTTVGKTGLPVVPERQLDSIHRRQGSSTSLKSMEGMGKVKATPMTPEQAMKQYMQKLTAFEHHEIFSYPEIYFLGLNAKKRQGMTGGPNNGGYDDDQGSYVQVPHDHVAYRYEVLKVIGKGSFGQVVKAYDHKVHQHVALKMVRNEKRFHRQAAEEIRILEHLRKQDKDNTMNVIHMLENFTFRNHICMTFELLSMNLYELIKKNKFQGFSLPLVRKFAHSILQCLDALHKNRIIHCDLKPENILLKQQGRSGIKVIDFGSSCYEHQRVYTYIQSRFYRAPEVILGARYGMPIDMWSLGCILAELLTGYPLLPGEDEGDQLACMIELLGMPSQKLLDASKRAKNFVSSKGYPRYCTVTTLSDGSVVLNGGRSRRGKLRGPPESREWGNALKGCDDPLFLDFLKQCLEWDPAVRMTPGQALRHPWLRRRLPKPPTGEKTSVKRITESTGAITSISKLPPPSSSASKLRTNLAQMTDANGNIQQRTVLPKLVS
As to conditions: DYRK2; 0.1 μM; 10 μM ATP; read-out: % Enzyme Activity (relative to DSMO controls). The gist of the method: as §1

The target of test [5] is T5, panel of 60 human kinases (Homo sapiens, UniProt P49841).
T5 construct: purchased Reaction Biology Corp
To be noted: GSK3b; 0.1 μM; 10 μM ATP; read-out: % Enzyme Activity (relative to DSMO controls). The gist of the method:
as §1

The target of test [6] is T6, panel of 60 human kinases (Homo sapiens, UniProt P08581).
T6 construct: purchased Reaction Biology Corp
As to conditions: c-MET; 0.1 μM; 10 μM ATP; read-out: % Enzyme Activity (relative to DSMO controls). The method in brief:
as §1

Test [7] deals with T7, panel of 60 human kinases (Homo sapiens, UniProt Q15139).
T7 construct: purchased Reaction Biology Corp
T7 sequence (Q15139 1-912): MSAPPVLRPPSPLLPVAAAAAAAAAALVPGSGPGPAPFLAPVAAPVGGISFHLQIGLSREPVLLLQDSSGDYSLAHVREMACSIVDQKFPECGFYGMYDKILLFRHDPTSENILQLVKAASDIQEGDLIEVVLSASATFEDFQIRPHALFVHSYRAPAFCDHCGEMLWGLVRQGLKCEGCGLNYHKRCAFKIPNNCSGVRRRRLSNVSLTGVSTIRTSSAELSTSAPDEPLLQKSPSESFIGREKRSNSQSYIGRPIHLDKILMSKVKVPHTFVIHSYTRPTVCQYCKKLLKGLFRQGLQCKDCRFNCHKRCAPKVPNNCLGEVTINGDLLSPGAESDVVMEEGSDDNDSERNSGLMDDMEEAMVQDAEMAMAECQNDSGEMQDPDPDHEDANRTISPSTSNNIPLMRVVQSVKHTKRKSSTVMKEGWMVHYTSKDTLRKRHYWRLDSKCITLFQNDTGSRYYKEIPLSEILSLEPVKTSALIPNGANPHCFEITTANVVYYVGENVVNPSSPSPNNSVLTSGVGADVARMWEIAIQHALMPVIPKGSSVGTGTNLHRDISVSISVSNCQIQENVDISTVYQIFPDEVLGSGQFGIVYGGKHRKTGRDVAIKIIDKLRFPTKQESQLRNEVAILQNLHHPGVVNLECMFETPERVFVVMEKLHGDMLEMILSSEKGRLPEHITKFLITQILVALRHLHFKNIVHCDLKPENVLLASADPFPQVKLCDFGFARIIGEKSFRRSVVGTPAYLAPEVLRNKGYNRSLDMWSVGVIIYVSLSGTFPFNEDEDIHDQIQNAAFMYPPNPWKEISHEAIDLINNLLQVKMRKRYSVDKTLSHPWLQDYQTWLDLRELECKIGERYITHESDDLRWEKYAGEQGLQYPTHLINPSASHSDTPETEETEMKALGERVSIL
To be noted: PKCmu/PRKD1; 0.1 μM; 10 μM ATP; read-out: % Enzyme Activity (relative to DSMO controls). The method in brief: as §1

Test [8] deals with T8, panel of 60 human kinases (Homo sapiens, UniProt O95819).
T8 construct: purchased Reaction Biology Corp
As to conditions: HGK/MAP4K4; 0.1 μM; 10 μM ATP; read-out: % Enzyme Activity (relative to DSMO controls). The gist of the method:
as §1

Test [9] concerns the target T9, panel of 60 human kinases (Homo sapiens, UniProt P24941).
T9 construct: purchased Reaction Biology Corp
As to conditions: 0.1 μM, 10 μM ATP, read-out: % Enzyme Activity (relative to DSMO controls). The method in brief:
as §1

Where two headings read alike, the source gives them in different places.

T5 sequence (P49841 whole entry): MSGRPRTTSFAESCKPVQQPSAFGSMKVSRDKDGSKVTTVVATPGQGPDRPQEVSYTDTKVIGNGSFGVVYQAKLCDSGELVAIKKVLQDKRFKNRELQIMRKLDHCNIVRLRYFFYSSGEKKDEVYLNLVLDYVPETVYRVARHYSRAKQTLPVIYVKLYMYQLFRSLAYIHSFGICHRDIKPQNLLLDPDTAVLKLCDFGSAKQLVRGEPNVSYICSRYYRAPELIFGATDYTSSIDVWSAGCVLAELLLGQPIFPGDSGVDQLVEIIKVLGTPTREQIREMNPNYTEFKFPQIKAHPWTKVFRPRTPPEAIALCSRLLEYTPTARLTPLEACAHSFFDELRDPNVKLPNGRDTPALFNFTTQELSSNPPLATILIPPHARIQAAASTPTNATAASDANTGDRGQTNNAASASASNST
T1 sequence (O75460 19-977): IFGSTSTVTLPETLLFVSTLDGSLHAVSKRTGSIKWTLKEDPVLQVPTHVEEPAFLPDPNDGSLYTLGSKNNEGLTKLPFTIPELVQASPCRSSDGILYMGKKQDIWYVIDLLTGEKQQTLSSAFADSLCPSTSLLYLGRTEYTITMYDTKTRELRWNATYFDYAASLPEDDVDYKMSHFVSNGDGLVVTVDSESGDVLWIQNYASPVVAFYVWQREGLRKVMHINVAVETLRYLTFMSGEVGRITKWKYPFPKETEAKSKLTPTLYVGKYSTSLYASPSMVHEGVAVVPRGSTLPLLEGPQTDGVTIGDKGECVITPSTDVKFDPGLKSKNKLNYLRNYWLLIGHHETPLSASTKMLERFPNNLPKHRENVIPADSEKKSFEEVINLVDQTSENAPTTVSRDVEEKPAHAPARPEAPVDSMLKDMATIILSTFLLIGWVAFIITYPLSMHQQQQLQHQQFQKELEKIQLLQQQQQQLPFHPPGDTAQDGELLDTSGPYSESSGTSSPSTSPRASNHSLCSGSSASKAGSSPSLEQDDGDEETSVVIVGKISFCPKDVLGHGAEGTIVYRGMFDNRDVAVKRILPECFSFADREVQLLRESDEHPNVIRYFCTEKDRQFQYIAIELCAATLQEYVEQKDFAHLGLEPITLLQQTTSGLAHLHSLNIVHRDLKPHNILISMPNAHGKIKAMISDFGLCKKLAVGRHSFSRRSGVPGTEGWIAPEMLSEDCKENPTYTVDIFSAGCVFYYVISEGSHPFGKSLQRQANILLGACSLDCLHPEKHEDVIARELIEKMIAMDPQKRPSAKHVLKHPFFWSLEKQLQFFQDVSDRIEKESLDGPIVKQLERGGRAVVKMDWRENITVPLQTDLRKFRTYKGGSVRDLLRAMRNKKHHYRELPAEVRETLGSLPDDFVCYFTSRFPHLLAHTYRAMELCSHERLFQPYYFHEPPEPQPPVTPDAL
T2 sequence (Q08345 19-913): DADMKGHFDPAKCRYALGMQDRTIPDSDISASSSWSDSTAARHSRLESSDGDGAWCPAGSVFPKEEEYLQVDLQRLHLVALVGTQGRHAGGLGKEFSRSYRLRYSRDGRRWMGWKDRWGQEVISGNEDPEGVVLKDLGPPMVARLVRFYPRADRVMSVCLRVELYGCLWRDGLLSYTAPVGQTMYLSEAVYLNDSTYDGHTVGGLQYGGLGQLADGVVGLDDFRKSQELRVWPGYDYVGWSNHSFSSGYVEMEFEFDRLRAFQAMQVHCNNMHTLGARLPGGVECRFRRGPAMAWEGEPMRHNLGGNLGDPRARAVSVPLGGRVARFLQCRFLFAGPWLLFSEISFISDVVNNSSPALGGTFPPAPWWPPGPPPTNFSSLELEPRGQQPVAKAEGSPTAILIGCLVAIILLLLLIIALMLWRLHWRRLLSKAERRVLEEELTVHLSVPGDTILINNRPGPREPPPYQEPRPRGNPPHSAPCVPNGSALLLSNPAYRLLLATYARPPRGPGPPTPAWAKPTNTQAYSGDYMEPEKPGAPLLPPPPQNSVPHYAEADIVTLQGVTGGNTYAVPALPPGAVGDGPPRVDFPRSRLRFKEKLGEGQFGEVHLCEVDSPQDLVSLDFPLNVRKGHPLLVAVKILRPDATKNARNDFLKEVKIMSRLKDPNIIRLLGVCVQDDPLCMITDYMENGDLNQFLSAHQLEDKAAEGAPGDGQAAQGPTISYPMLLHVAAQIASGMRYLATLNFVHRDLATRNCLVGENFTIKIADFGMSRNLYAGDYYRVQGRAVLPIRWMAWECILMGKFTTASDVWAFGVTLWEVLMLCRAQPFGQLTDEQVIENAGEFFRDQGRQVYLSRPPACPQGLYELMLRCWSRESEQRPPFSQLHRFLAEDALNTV
T6 sequence (P08581 25-1390): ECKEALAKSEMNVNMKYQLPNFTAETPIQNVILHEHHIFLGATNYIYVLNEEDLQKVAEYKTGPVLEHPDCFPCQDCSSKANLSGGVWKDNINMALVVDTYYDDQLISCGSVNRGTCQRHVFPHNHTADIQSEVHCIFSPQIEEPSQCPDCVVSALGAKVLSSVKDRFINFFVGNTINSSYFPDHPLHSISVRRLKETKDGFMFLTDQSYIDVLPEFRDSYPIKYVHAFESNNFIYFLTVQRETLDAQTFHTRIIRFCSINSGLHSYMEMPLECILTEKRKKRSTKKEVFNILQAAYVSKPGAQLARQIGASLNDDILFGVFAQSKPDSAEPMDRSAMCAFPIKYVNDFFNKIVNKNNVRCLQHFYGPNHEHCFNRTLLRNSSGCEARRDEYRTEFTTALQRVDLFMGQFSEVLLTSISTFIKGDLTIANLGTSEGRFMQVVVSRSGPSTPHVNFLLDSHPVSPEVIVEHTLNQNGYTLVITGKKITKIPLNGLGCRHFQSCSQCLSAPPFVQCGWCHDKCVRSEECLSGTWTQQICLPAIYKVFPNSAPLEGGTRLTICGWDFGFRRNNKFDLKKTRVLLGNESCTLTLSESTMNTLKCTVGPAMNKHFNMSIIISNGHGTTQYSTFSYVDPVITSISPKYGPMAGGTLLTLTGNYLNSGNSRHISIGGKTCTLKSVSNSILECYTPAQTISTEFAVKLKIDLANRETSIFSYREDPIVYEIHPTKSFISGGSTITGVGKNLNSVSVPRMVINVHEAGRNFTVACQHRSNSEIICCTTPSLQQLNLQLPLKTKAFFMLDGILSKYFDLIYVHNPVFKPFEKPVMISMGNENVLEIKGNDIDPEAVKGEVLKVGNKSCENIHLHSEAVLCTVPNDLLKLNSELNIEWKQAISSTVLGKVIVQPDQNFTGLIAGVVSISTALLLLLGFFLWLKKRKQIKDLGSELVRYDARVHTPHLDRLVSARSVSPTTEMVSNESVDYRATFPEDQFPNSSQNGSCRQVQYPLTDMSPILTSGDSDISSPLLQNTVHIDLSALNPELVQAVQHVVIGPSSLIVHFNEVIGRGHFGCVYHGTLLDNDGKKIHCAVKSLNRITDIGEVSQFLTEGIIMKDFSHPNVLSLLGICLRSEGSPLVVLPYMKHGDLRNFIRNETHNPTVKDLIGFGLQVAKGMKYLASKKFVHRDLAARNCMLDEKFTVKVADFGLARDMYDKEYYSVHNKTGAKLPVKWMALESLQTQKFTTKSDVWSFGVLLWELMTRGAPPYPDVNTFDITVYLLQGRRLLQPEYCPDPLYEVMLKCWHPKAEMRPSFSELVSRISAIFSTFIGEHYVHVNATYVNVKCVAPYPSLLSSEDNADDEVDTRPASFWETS
T8 sequence (O95819 whole entry): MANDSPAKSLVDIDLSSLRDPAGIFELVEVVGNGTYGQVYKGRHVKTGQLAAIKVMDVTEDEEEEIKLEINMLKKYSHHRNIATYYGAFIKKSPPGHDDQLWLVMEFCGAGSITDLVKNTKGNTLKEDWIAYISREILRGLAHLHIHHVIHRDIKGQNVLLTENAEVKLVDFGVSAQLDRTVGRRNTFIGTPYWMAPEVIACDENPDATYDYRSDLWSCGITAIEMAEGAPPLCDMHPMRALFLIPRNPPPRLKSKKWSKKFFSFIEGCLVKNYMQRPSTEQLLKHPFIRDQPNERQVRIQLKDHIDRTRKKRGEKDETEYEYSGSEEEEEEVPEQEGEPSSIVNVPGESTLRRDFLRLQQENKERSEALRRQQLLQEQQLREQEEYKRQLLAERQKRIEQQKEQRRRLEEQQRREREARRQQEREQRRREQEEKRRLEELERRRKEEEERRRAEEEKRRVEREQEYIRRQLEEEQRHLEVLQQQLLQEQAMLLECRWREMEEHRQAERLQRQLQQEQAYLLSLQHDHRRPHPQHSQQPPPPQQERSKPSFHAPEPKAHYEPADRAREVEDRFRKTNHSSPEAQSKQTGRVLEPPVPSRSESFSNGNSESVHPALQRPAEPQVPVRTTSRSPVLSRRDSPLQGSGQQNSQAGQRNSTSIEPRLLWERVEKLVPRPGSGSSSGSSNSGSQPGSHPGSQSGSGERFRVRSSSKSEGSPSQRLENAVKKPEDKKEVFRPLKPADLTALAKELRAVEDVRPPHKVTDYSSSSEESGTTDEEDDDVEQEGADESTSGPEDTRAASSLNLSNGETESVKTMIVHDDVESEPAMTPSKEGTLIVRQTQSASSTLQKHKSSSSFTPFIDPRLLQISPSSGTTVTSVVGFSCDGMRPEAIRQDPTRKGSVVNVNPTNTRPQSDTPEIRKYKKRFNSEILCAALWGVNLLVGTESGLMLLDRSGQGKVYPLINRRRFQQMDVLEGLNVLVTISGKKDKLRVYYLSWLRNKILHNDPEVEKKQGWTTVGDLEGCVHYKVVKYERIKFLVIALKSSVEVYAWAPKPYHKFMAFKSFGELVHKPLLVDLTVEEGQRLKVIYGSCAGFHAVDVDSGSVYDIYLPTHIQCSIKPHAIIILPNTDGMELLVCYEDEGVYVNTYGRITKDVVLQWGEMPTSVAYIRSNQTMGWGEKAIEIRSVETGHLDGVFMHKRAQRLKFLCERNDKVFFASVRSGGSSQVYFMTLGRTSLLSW

Take `CN1CCN(Cc2ccc(-c3cnc4[nH]cc(-c5ccc6[nH]ccc6c5)c4c3)cc2)CC1` [Compound 1, 3-(1H-Indol-5-yl)-5-(4-((4-methylpiperazin-1-yl)methyl)phenyl)-1H-pyrrolo[2,3-b]pyridine, reference compound]: the remaining activity at 0.1 µM in test [1] was found to be 108%; in [2], 47.5%; in test [3] it was 99.3%; in test [4] it was 44%; in test [5] it was 100%; in test [6], 55.9%. In addition, the remaining activity at 0.1 µM in [7] turned out to be 11.4%; in test [8] it was 1.96%; in test [9] (CDK2/cyclin A1) it was 83.6%; in test [9] (CDK2/cyclin A) it was 83.7%; in test [9] (CDK2/cyclin E) it was 97.9%; in [9] (CDK2/cyclin O), 72.5%.

Regarding `CN1CCN(Cc2ccc(-c3cnc4[nH]cc(-c5cccc(Cl)c5)c4c3)cc2)CC1` [Compound 7ad, 3-(3-Chlorophenyl)-5-(4-((4-methylpiperazin-1-yl)methyl)phenyl)-1H-pyrrolo[2,3-b]pyridine], the remaining activity at 0.1 µM in test [1] worked out at 102%; in test [2], 82%; in test [3], 108%; in test [4], 69.7%; in [5], 98.1%; in test [6], 86.2%. In addition, the remaining activity at 0.1 µM in test [7] stood at 9.7%; in test [8], 1.36%; in test [9] (CDK2/cyclin A1), 97%; in test [9] (CDK2/cyclin A), 87.4%; in test [9] (CDK2/cyclin E) it was 96.2%; in [9] (CDK2/cyclin O) it was 75.1%.

Turning to `CN1CCN(Cc2ccc(-c3cnc4[nH]cc(-c5cnn(Cc6ccccc6)c5)c4c3)cc2)CC1` [Compound 7ah, 3-(1-Benzyl-1H-pyrazol-4-yl)-5-(4-((4-methylpiperazin-1-yl)methyl)phenyl)-1H-pyrrolo[2,3-b]pyridine], the remaining activity at 0.1 µM in test [1] came to 104%; in [2], 38.3%; in test [3] it was 106%; in [4], 59.3%; in [5], 60.6%; in test [6], 86.6%. Further, the remaining activity at 0.1 µM in test [7] amounted to 4.39%; in [8], 5.18%; in test [9] (CDK2/cyclin A1), 30.7%; in test [9] (CDK2/cyclin A), 44.2%; in test [9] (CDK2/cyclin E) it was 48.9%; in [9] (CDK2/cyclin O), 19.2%.

Turning to `Cc1nn(C)c(C)c1-c1c[nH]c2ncc(-c3ccc(CN4CCN(C)CC4)cc3)cc12` [Compound 7ai, 5-(4-((4-Methylpiperazin-1-yl)methyl)phenyl)-3-(1,3,5-trimethyl-1H-pyrazol-4-yl)-1H-pyrrolo[2,3-b]pyridine], the remaining activity at 0.1 µM in test [1] came out at 102%; in test [2], 76.5%; in [3], 106%; in test [4] it was 66.5%; in test [5], 94%; in test [6], 77.4%. Further, the remaining activity at 0.1 µM stood at 14.2% in test [7]; 9.15% in test [8]; 87.8% in [9] (CDK2/cyclin A1); 90.9% in [9] (CDK2/cyclin A); 94.8% in test [9] (CDK2/cyclin E); 77.9% in test [9] (CDK2/cyclin O).

Regarding `CN1CCN(Cc2ccc(-c3cnc4[nH]cc(-c5ccccc5Cl)c4c3)cc2)CC1` [Compound 7as, 3-(2-Chlorophenyl)-5-(4-((4-methylpiperazin-1-yl)methyl)phenyl)-1H-pyrrolo[2,3-b]pyridine], the remaining activity at 0.1 µM worked out at 97.5% in test [1]; 35.6% in [2]; 109% in [3]; 18.2% in [4]; 98.9% in test [5]; 84.1% in [6]. Also, the remaining activity at 0.1 µM in [7] is 9.63%; in test [8], -0.5%; in [9] (CDK2/cyclin A1), 65%; in test [9] (CDK2/cyclin A), 69.5%; in [9] (CDK2/cyclin E), 88.5%; in test [9] (CDK2/cyclin O), 51.2%.

In the case of `COc1ccccc1-c1c[nH]c2ncc(-c3ccc(CN4CCN(C)CC4)cc3)cc12` [Compound 7at, 3-(2-Methoxyphenyl)-5-(4-((4-methylpiperazin-1-yl)methyl)phenyl)-1H-pyrrolo[2,3-b]pyridine], the remaining activity at 0.1 µM was 101% in test [1]; 68.1% in test [2]; 103% in [3]; 96.8% in test [4]; 97.3% in test [5]; 86.8% in [6]. Also, the remaining activity at 0.1 µM was 38.7% in [7]; 9.52% in test [8]; 58.8% in [9] (CDK2/cyclin A1); 56.1% in test [9] (CDK2/cyclin A); 80.6% in test [9] (CDK2/cyclin E); 29.6% in test [9] (CDK2/cyclin O).
